According to ChEMBL document CHEMBL1201862, “PubChem BioAssay data set” (2004):
Calls of active or inactive are those of the source.

Key:
cells [1] = type: functional, cell-based
cells [2] = type: functional, cell-based; remark: listed apart in the source
[3] = Trypanosoma cruzi growth suppression in host cells – NIH3T3 host cells, beta-gal luminescence, confirmation (AID 2044); type: functional, cell-based;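 further: intracellular parasites grown in NIH/3T3 mouse fibroblasts as host cells; luminescent beta-galactosidase reporter signal from transgenic T. cruzi replicating inside host cells; inhibitors lower the luminescence signal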
Streptococcus = assay: GAS UMAA2166 growth inhibition – luminescence, BacTiterGlo, counter-screen for streptokinase expression inhibitor project, dose response (AID 1915); type: functional, organism-based;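 further: potency for reduction of bacterial viability or growth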
H9c2 = assay: cells; type: functional, cell-based; details: Rattus norvegicus, H9c2, Myocardium
[4] = luciferase reporter signal suppression in cells – H4 neuroglioma cells, luminescence, dose response (AID 1990); type: functional, cell-based
[5] = NIH3T3 cell viability loss – ATP luminescence, mouse fibroblasts, counter-screen, dose response (AID 2010); type: functional, cell-based;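 further: cells exposed to compound for about 90 hours before reading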
Streptokinase A = biological target: T1, Streptokinase A (Streptococcus pyogenes serotype M1, UniProt P10520); assay: viability-normalized secreted streptokinase activity reduction – plasminogen activation absorbance, OD405, dose response (AID 1914); type: functional, Streptococcus pyogenes M1 GAS;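 further: secreted streptokinase activity via plasminogen activation per viability signal from cell pellet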
T1 sequence (P10520 whole entry): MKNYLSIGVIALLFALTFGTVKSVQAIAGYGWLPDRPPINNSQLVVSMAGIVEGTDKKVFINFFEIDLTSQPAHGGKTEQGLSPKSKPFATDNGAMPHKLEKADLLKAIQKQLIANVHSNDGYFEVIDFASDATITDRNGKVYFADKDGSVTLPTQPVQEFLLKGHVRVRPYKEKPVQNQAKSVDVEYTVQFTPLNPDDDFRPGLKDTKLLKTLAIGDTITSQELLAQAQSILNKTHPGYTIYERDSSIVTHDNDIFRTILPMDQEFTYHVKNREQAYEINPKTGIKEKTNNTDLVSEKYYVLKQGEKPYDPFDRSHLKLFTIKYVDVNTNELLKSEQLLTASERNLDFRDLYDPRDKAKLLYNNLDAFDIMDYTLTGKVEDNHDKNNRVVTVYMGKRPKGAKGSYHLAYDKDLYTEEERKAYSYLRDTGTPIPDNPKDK

[6] = test system: Streptococcus sp. 'group A'; assay: Streptococcus pyogenes SK(-)GAS viability under kanamycin – luminescence, BacTiterGlo, confirmation, counter-screen for streptokinase expression inhibitor project, dose response (AID 1900); type: functional, organism-based
[7] = alpha-synuclein stem-loop luciferase translation blockers – H4 neuroglioma cells, luminescence, confirmation (AID 1988); type: functional, cell-based
[8] = Luminescence Cell-Based Dose Response HTS to Identify Inhibitors of 5'UTR Stem-Loop Driven Prion Protein mRNA Translation in H4 Neuroglioblastoma Cells. [Related pubchem assays: 1827 (Project Summary), 1813 (Primary HTS)]; type: functional
[9] = biological target: FAD-linked sulfhydryl oxidase ALR (Homo sapiens, UniProt P55789); assay: ALR-catalysed DTT oxidation blockers – biochemical, H2O2 detection, luminescence, cherry-pick, dose response (AID 493248)
[10] = intracellular Trypanosoma cruzi inhibitors in host cells – cell-based, plate reader, cherry-pick samples, set 3, dose response (AID 651818); type: functional;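 further: compounds incubated with infected cells for about four days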
Protein skinhead-1 = biological target: T2, Protein skinhead-1 (Caenorhabditis elegans, UniProt P34707); type: functional
T2 sequence (P34707 whole entry): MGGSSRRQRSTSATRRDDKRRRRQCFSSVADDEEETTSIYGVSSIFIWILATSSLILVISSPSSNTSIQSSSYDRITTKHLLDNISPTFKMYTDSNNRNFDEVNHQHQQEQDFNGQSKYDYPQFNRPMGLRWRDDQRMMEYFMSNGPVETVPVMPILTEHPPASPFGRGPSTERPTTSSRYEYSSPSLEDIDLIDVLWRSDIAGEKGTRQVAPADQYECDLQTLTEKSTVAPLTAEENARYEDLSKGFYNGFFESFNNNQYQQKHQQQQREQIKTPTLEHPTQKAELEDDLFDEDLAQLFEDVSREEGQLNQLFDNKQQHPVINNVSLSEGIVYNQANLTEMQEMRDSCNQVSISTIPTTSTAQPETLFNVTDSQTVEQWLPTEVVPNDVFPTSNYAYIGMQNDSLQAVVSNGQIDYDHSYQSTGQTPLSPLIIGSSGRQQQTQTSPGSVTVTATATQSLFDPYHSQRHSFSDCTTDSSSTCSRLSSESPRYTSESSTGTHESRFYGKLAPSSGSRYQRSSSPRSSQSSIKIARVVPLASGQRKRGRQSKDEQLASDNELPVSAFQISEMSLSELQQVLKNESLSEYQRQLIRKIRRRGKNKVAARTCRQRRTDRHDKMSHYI

cells [11] = type: functional
[12] = THP-1 cell cytotoxicity, dose response, cytotoxicity control for non-replicating M. tuberculosis project (AID 489025); type: functional
[13] = Vero E6 cell cytotoxicity, dose response, cytotoxicity control for non-replicating M. tuberculosis project, secondary assay (AID 492998); type: functional, VeroE6; details: Vero C1008
[14] = biological target: Heat shock protein HSP 90-alpha (Homo sapiens, UniProt P07900); type: functional, organism-based
[15] = fluconazole-exposed Candida albicans growth modulators – fluorescence, retest, confirmation (AID 2467); type: functional, cell-based
[16] = NIH-3T3 fibroblast cytotoxicity, dose response, cytotoxicity control, cell-based, fluorescence, Alamar Blue, secondary assay (AID 2327); type: functional;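 further: NIH-3T3 mouse fibroblasts cultured with fluconazole at 8 µg/mL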
[17] = biological target: T3, Heat shock factor protein 1 (Mus musculus, UniProt P38532); assay: enhancement of HSF1-driven luciferase signal – cell-based, NIH3T3, luminescence, dose retest, confirmation (AID 435004); type: functional;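 further: stress induced by proteasome inhibitor MG132 added 30 min after compound; luciferase reporter driven by HSF1 response element in NIH3T3 cells; actives raise luminescence as potentiators of the MG132 stress response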
T3 sequence (P38532 whole entry): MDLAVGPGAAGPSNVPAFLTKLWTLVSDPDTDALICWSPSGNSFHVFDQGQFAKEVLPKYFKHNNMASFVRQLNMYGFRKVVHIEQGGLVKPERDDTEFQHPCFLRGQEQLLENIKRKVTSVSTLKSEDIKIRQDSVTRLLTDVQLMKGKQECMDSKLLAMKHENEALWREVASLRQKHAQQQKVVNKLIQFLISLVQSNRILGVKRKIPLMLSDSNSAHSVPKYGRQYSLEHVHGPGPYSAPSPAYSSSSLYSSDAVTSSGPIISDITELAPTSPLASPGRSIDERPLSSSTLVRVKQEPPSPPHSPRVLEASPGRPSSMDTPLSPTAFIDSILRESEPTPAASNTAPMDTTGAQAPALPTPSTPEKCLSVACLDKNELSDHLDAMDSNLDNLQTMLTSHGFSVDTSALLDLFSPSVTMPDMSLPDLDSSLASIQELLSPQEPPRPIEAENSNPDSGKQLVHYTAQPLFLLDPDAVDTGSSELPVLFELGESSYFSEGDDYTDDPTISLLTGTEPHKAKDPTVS

Sequence of FAD-linked sulfhydryl oxidase ALR (P55789 whole entry): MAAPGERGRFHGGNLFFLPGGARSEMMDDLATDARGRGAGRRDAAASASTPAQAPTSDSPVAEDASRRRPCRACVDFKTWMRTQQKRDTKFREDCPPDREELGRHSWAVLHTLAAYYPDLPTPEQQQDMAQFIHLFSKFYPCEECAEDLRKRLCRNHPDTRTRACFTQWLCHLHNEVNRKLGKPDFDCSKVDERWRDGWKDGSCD

## C=C(C)Cn1c(CCNC(=O)C(C)C)nc2ccccc21
Cells [1]
  EC50: > 350 µM (not active)
Cells [2]
  EC50: > 350 µM (not active)

## O=C(COc1ccc([N+](=O)[O-])cc1)Nc1nc(-c2ccccn2)cs1
[3]
  EC50: 1.79 µM (active)
Streptococcus
  EC50: 13.8 µM (active)
H9c2
  IC50: 11.8 µM (active)
[4]
  EC50: > 120 µM (not active)
[5]
  EC50: 8.46 µM (active)
Streptokinase A
  EC50: > 150 µM (not active)
[6]
  EC50: 5.56 µM (active)
[7]
  EC50: > 120 µM (not active)
[8]
  EC50: 11.8 µM (active)

## O=C(N/N=C\c1cccc(Cl)c1)c1ccc(Cn2cccn2)o1
[9]
  AC50: 0.641 µM (active)

## C[C@H]1CN([C@@H](C)CO)C(=O)Cc2cc(NC(=O)Cc3cn(C)c4ccccc34)ccc2O[C@H]1CN(C)Cc1ccc(C(=O)Nc2ccccc2N)cc1
[10]
  AC50: 2 µM (active)

## C[C@H]1CN([C@@H](C)CO)C(=O)Cc2cc(NC(=O)Nc3cccc4ccccc34)ccc2O[C@@H]1CN(C)Cc1ccc2c(c1)OCO2
[10]
  AC50: 5.35 µM (active)

## COc1cccc(N2CCN(CC(=O)NCc3ccccc3)CC2)c1
[9]
  AC50: 1.97 µM (active)

## Cc1ccc(NC2CCCN(C(=O)CCc3ccncc3)C2)cc1C (stereo not drawn)
[3]
  EC50: 1.15 µM (active)
[9]
  AC50: 2.7 µM (active)
[5]
  EC50: > 60 µM (not active)

## CC(=O)NC(Cc1ccc(F)cc1)C(=O)N1CCN(C(=O)NCc2ccccc2)CC1 (stereo not drawn)
Protein skinhead-1
  IC50: > 100 µM (inactive)

## O=C(NC1CCCCC1)c1nc(O)c2nnn(Cc3ccccc3Cl)c2n1
Cells [11]
  IC50: 29.9 µM (active)
[12]
  CC50: > 40 µM (active)
[13]
  CC50: 19.9 µM (active)

## Cc1occc1-c1nnc(-c2cc([N+](=O)[O-])cc([N+](=O)[O-])c2)o1
Cells [11]
  IC50: 1.37 µM (active)
[3]
  EC50: 0.277 µM (active)
[5]
  EC50: > 60 µM (not active)
[14]
  AC50: 2.74 µM (active)

## C/C(CC(=O)Nc1cc(C)ccn1)=N\NC(=O)c1cccc(C)c1O
[15]
  EC50: > 38 µM (not active)
[14]
  AC50: 49.5 µM (active)
[16]
  EC50: > 160 µM (inactive)

## C[C@@H]1CN([C@H](C)CO)C(=O)c2cccc(NC(=O)NC3CCCCC3)c2O[C@@H]1CN(C)Cc1ccc(C(=O)Nc2ccccc2N)cc1
[10]
  AC50: 3.74 µM (active)

## C/C(=N\NC(=O)c1ccncc1)c1ccc(N(C)C)cc1
[9]
  AC50: 5.01 µM (active)

## O=C(Nc1ccc(Cl)cc1Cl)C1=Cc2ccccc2OC1
Protein skinhead-1
  IC50: > 100 µM (inactive)

## O=C(NCCCN1CCOCC1)c1cc(-c2cccs2)on1
Cells [1]
  EC50: 77 µM (active)
Cells [2]
  EC50: > 350 µM (not active)

## CCCCCn1c(N)c(C(=O)NCCN2CCOCC2)c2nc3ccccc3nc21
Protein skinhead-1
  IC50: > 100 µM (inactive)

## CCOC(=O)c1cc2c(ccn2C)n1CC(=O)N1CCN(c2ccccc2)CC1
Cells [1]
  EC50: > 350 µM (not active)
Cells [2]
  EC50: > 350 µM (not active)

## O=C1OC(c2ccccc2)(c2ccc3cc(O)ccc3c2)c2ccccc21 (stereo not drawn)
[14]
  AC50: 8.23 µM (active)

## CC(C)NC(=O)Nc1cccc2c1O[C@H](CN(C)CC1CCCCC1)[C@@H](C)CN([C@H](C)CO)C2=O
[10]
  AC50: 8.41 µM (active)

## C[C@@H]1CN([C@@H](C)CO)C(=O)Cc2cc(NC(=O)Nc3ccc(C(F)(F)F)cc3)ccc2O[C@@H]1CN(C)Cc1ccncc1
[10]
  AC50: 3.57 µM (active)

## O=C(NCc1cccs1)c1csc([C@@H]2O[C@H](CO)[C@H](O)[C@H](O)[C@H]2O)n1
Protein skinhead-1
  IC50: > 100 µM (inactive)

## Cc1cc(NC(=O)CCN2C(=O)/C(=C\c3ccccc3)SC2=S)no1
Cells [1]
  EC50: > 350 µM (not active)
Cells [2]
  EC50: > 350 µM (not active)

## c1ccc(-c2cc3c(N4CCOCC4)ncnc3s2)cc1
Protein skinhead-1
  IC50: > 100 µM (inactive)

## O=C(CCN1CCN(c2ccccc2)CC1)N/N=C/c1ccccc1O
Cells [1]
  EC50: 91.8 µM (active)
Cells [2]
  EC50: > 350 µM (not active)

## O=C(NCN1CCN(c2ccccc2)CC1)c1cnccn1
[9]
  AC50: 4.03 µM (active)

## O=C(/C=C/c1ccc(Cl)cc1Cl)Nc1ccc(CN2CCOCC2)cc1
Protein skinhead-1
  IC50: 27 µM (active)

## O=S(=O)(NC1CC2CCC1C2)c1ccc(Br)cc1 (stereo not drawn)
[14]
  AC50: 1.6 µM (active)

## COc1ccc(S(=O)(=O)Nc2ccc3c(c2)CC(=O)N([C@@H](C)CO)C[C@@H](C)[C@@H](CN(C)Cc2ccc(Cl)c(Cl)c2)O3)cc1
[10]
  AC50: 4.36 µM (active)

## c1ccc(OCc2nc3ccccc3s2)cc1 [2-(PHENOXYMETHYL)BENZOTHIAZOLE]
Protein skinhead-1
  IC50: 29.5 µM (active)

## CCCCc1c(C)nc(N)nc1O
Cells [1]
  EC50: > 350 µM (not active)
Cells [2]
  EC50: > 350 µM (not active)

## C[C@@H]1CCCCO[C@H](CN(C)C(=O)Nc2ccc(C(F)(F)F)cc2)[C@@H](C)CN([C@H](C)CO)C(=O)c2cc(NC(=O)Nc3ccc4c(c3)OCO4)ccc2O1
[10]
  AC50: 1.68 µM (active)

## CCn1c(S)nnc1CCn1c2ccccc2c2ccccc21
[9]
  AC50: > 100 µM (inactive)

## O=C1NC(=O)N(Cc2ccccc2Cl)C(=O)/C1=C/c1ccc[nH]1
Cells [11]
  IC50: 1.04 µM (active)
[12]
  CC50: 9.35 µM (active)
[13]
  CC50: 9.48 µM (active)

## CSc1ccccc1OCc1cc(C(=O)N2CCN(C)C(c3ccccc3)C2)no1 (stereo not drawn)
[14]
  AC50: 1.64 µM (active)

## CCN(CC)c1ccc(CNCc2cccs2)cc1
[9]
  AC50: 0.742 µM (active)

## Cc1ccc(S(=O)(=O)N(C)C[C@H]2Oc3c(NC(=O)Nc4ccc(C(F)(F)F)cc4)cccc3C(=O)N([C@@H](C)CO)C[C@H]2C)cc1
[10]
  AC50: 1.55 µM (active)

## O=C1N[C@H]2CC=C[C@H]2Nc2ccccc21
H9c2
  IC50: 44.8 µM (inactive)

## CCCN1Cc2cccc(C(N)=O)c2C1=O
H9c2
  IC50: > 79 µM (inactive)

## Cc1noc(C)c1S(=O)(=O)Nc1ccc2c(c1)C(=O)N([C@H](C)CO)C[C@H](C)[C@@H](CN(C)Cc1ccc(C(=O)Nc3ccccc3N)cc1)OCCCC[C@@H](C)O2
[10]
  AC50: 2.18 µM (active)

## CC1Oc2cc3oc4c(O)c(O)ccc4c(=O)c3c(O)c2C1(C)C (stereo not drawn) [TOXYLOXANTHONE C]
[15]
  EC50: > 38 µM (not active)
Streptococcus
  EC50: 8.07 µM (active)
Streptokinase A
  EC50: > 150 µM (not active)
[6]
  EC50: 5.91 µM (active)
[14]
  AC50: 38 µM (active)
[16]
  EC50: > 150 µM (inactive)

## COc1ccc(N2C(=O)CSC2c2ccncc2)cc1 (stereo not drawn)
[9]
  AC50: 0.124 µM (active)
[17]
  EC50: > 260 µM (inactive)

## COc1cc(OC)c(-c2nn3c(-c4ccco4)nnc3s2)cc1OC
H9c2
  IC50: > 79 µM (inactive)
